From patent US8058242B2, “Chimeric proteins with natriuretic activity” (The University of Queensland, priority 2004, dated 2011)
Positions of bridges follow the written chain, without caps; N, C: chain ends. Non-standard residues stand in square brackets, D forms with d. Residues, ends and D or L forms follow the SMILES beside them. Nle = CCCC[C@H](N)C(=O)O

Experiments:
conscious rabbits = experiment: Blood pressure and heart rate in conscious rabbits, intravenous infusion dose-response (Example 8)
[1] = biological target: T1, Natriuretic Peptide Receptor-A (NPR-A) signaling in MDCK cells (Canis lupus familiaris, UniProt A0A8I3MHU3); type: cell-based, canine; settings: stimulation of cGMP accumulation in MDCK cells; for EC50: read-out: EC50 (M) ± Standard Error
T1 sequence (A0A8I3MHU3 32-1060): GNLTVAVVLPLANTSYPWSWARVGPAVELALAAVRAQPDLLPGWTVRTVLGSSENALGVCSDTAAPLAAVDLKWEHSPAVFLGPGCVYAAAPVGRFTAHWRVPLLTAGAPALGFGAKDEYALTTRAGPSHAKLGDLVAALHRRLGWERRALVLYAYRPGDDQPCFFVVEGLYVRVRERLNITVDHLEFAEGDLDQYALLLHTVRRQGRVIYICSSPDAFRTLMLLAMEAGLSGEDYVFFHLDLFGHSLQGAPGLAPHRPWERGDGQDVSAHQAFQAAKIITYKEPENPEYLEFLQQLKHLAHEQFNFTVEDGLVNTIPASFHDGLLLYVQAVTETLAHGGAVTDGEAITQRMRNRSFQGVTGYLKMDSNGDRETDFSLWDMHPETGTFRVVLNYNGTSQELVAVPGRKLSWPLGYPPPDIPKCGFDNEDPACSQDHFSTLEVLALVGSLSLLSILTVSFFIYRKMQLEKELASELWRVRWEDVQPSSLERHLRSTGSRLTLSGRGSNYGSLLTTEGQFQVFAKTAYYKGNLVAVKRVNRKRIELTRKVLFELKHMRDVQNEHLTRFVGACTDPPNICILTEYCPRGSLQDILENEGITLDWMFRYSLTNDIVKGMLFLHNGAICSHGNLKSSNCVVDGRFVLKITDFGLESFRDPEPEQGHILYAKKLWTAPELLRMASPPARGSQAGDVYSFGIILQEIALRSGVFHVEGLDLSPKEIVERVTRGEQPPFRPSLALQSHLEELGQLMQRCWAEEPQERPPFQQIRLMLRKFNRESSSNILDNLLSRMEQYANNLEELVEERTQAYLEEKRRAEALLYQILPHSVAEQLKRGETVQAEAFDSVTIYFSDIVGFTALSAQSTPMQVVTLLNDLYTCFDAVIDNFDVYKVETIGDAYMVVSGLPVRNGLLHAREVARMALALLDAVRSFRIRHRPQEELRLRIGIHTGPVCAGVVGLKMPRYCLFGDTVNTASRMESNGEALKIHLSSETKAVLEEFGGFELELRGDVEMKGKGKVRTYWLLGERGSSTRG

[2] = after a 2 hour recovery period, Table 10B

Q: For `CC[C@H](C)[C@H](NC(=O)[C@H](CCCCN)NC(=O)[C@H](CO)NC(=O)[C@H](CC(=O)O)NC(=O)[C@@H](N)CO)C(=O)NCC(=O)N[C@@H](CC(N)=O)C(=O)NCC(=O)N[C@H]1CSSC[C@@H](C(=O)N[C@@H](CC(N)=O)C(=O)N[C@@H](CCCNC(=N)N)C(=O)N[C@H](C(=O)N[C@@H](CCSC)C(=O)N[C@@H](CCC(N)=O)C(=O)N[C@@H](CC(N)=O)C(=O)N2CCC[C@H]2C(=O)N2CCC[C@H]2C(=O)N[C@@H](CCCCN)C(=O)N[C@@H](CCCCN)C(=O)N[C@@H](Cc2ccccc2)C(=O)N[C@@H](CO)C(=O)NCC(=O)N[C@@H](CCC(=O)O)C(=O)O)[C@@H](C)CC)NC(=O)CNC(=O)[C@H](CC(C)C)NC(=O)CNC(=O)[C@H](CO)NC(=O)[C@H](C(C)C)NC(=O)[C@H](CO)NC(=O)[C@H](CCCNC(=N)N)NC(=O)[C@H]([C@@H](C)CC)NC(=O)[C@H](CCCNC(=N)N)NC(=O)[C@H](CC(=O)O)NC(=O)[C@H](CC(C)C)NC(=O)[C@@H]2CCCN2C(=O)[C@H](Cc2ccccc2)NC(=O)CNC(=O)[C@H](Cc2ccccc2)NC1=O` [TNPc R-18] (H-SDSKIGNGCFGFPLDRIRSVSGLGCNRIMQNPPKKFSGE-OH; disulfide 9-25; N-terminus assumed), which “MAP at final dose” value (conscious rabbits; Table 10B) is on record?
A: The value was 63.5 mm Hg.

Q: And the “Recovery (MAP)” value (conscious rabbits; [2])?
A: Its value is 67.4 mm Hg.

Q: And the “Recovery Delta SED (MAP)” value (conscious rabbits; [2])?
A: Its value is 3.8 ± 1.6 mm Hg.

Q: And the “Treatment Effect, change of mean blood pressure during the infusion” value (conscious rabbits; final dose, Table 10B, groups 2B and 2C)?
A: The value was −9.0 mm Hg.

Q: What about the “reduction of MAP compared to vehicle, in words” value (conscious rabbits; highest dose) of the same compound?
A: Its value is “did significantly reduce MAP”.

Q: What about the “−Log10 EC50 (pEC50) ± Standard Error” value [1] of the same compound?
A: The value was 6.777 ± 0.5812.

Q: And the EC50 [1]?
A: Its EC50 is 7e-07 M.

Q: `CCCC[C@H](NC(=O)[C@@H](NC(=O)[C@H](CCCNC(=N)N)NC(=O)[C@H](CC(N)=O)NC(=O)[C@@H]1CSSC[C@H](NC(=O)CNC(=O)[C@H](CC(N)=O)NC(=O)CNC(=O)[C@@H](NC(=O)[C@H](CCCCN)NC(=O)[C@H](CO)NC(=O)[C@H](CC(=O)O)NC(=O)[C@@H](N)CO)[C@@H](C)CC)C(=O)N[C@@H](Cc2ccccc2)C(=O)NCC(=O)N[C@@H](Cc2ccccc2)C(=O)N2CCC[C@H]2C(=O)N[C@@H](CC(C)C)C(=O)N[C@@H](CC(=O)O)C(=O)N[C@@H](CCCNC(=N)N)C(=O)N[C@@H]([C@@H](C)CC)C(=O)NCC(=O)N[C@@H](CO)C(=O)N[C@@H](C(C)C)C(=O)N[C@@H](CO)C(=O)NCC(=O)N[C@@H](CC(C)C)C(=O)NCC(=O)N1)[C@@H](C)CC)C(=O)N[C@@H](CCC(N)=O)C(=O)N[C@@H](CC(N)=O)C(=O)N1CCC[C@H]1C(=O)N1CCC[C@H]1C(=O)N[C@@H](CCCCN)C(=O)N[C@@H](CCCCN)C(=O)N[C@@H](Cc1ccccc1)C(=O)N[C@@H](CO)C(=O)NCC(=O)N[C@@H](CCC(=O)O)C(=O)O` [Nle-TNPc] (H-SDSKIGNGCFGFPLDRIGSVSGLGCNRI[Nle]QNPPKKFSGE-OH; disulfide 9-25; N-terminus assumed) was tested. Which “−Log10 EC50 (pEC50) ± Standard Error” value [1] did it give?
A: The value was 6.497 ± 0.2017.

Q: What about the EC50 [1] of the same compound?
A: Its EC50 is 3.99e-07 M.

Q: For `CC[C@H](C)[C@@H]1NC(=O)[C@H](CCCNC(=N)N)NC(=O)[C@H](CC(=O)O)NC(=O)[C@H](CC(C)C)NC(=O)[C@@H]2CCCN2C(=O)[C@H](Cc2ccccc2)NC(=O)CNC(=O)[C@H](Cc2ccccc2)NC(=O)[C@@H](NC(=O)CNC(=O)[C@H](C)NC(=O)[C@H](CO)NC(=O)[C@@H](NC(=O)[C@H](CCCCN)NC(=O)[C@H](CO)NC(=O)[C@H](CC(=O)O)NC(=O)[C@@H](N)CO)[C@@H](C)CC)CSSC[C@@H](C(=O)N[C@@H](CC(N)=O)C(=O)N[C@@H](CCCNC(=N)N)C(=O)N[C@H](C(=O)N[C@@H](CCSC)C(=O)N[C@@H](CCC(N)=O)C(=O)N[C@@H](CC(N)=O)C(=O)N2CCC[C@H]2C(=O)N2CCC[C@H]2C(=O)N[C@@H](CCCCN)C(=O)N[C@@H](CCCCN)C(=O)N[C@@H](Cc2ccccc2)C(=O)N[C@@H](CO)C(=O)NCC(=O)N[C@@H](CCC(=O)O)C(=O)O)[C@@H](C)CC)NC(=O)CNC(=O)[C@H](CC(C)C)NC(=O)CNC(=O)[C@H](CO)NC(=O)[C@H](C(C)C)NC(=O)[C@H](CO)NC(=O)CNC1=O` [Peptide A7S6-TNPc] (H-SDSKISAGCFGFPLDRIGSVSGLGCNRIMQNPPKKFSGE-OH; disulfide 9-25; N-terminus assumed), which “−Log10 EC50 (pEC50) ± Standard Error” value [1] is on record?
A: Its value is 6.897 ± 0.2652.

Q: What about the EC50 [1] of the same compound?
A: The EC50 was 1.69e-07 M.

Q: How did the “−Log10 EC50 (pEC50) ± Standard Error” value [1] turn out when `CC[C@H](C)[C@H](NC(=O)[C@H](CCCCN)NC(=O)[C@H](CO)NC(=O)[C@H](CC(=O)O)NC(=O)[C@@H](N)CO)C(=O)NCC(=O)N[C@@H](CC(=O)O)C(=O)NCC(=O)N[C@H]1CSSC[C@@H](C(=O)N[C@@H](CC(N)=O)C(=O)N[C@@H](CCCNC(=N)N)C(=O)N[C@H](C(=O)N[C@@H](CCSC)C(=O)N[C@@H](CCC(N)=O)C(=O)N[C@@H](CC(N)=O)C(=O)N2CCC[C@H]2C(=O)N2CCC[C@H]2C(=O)N[C@@H](CCCCN)C(=O)N[C@@H](CCCCN)C(=O)N[C@@H](Cc2ccccc2)C(=O)N[C@@H](CO)C(=O)NCC(=O)N[C@@H](CCC(=O)O)C(=O)O)[C@@H](C)CC)NC(=O)CNC(=O)[C@H](CC(C)C)NC(=O)CNC(=O)[C@H](CO)NC(=O)[C@H](C(C)C)NC(=O)[C@H](CO)NC(=O)CNC(=O)[C@H]([C@@H](C)CC)NC(=O)[C@H](CCCNC(=N)N)NC(=O)[C@H](CC(=O)O)NC(=O)[C@H](CC(C)C)NC(=O)[C@@H]2CCCN2C(=O)[C@H](Cc2ccccc2)NC(=O)CNC(=O)[C@H](Cc2ccccc2)NC1=O` [Peptide N7D-TNPc] (H-SDSKIGDGCFGFPLDRIGSVSGLGCNRIMQNPPKKFSGE-OH; disulfide 9-25; N-terminus assumed) was run?
A: The value was 7.585 ± 0.005.

Q: And the EC50 [1]?
A: Its EC50 is 2.62e-08 M.
